In patent US7393526B2, “Systemic gene delivery vehicles for the treatment of tumors” (Children's Medical Center Corporation, priority 2000, dated 2008):

What was measured:
CNS-1 glioma cells = assay: Co-culture of CD-NSCs with glioma cells plus 5-FC: tumor cell count per high-power field; format: cell-based; conditions: tumor cell-only plates, no CD-NSCs, 5-FC 500 μg/ml
Text: FIGS. 2A-2C summarize the significant antitumor effect of CD-expressing NSCs in vitro. CNS-1 glioblastoma cells were co-cultured with murine CD-NSCs (FIGS. 2A and 2B) or human CD-NSCs. Representative low power fields are shown after fixation and X-gal staining (CD-NSCs dark blue, tumor cells pale) three days after plating with or without 5-FC. […] In this treatment regime, the NSCs were still dividing and thus also subject to elimination by 5-FU and its toxic metabolites. […] Note also, that the tumor-killing effect was virtually identical whether 50,000 or 100,000 CD-NSCs were initially plated with 200,000 tumor cells.
This experiment was performed to determine if modified CD-NSCs could effectively deliver therapy to tumor cells and produce a profound antitumor response. 200,000 CNS-1 glioma cells were plated into 10 cm Petri dishes. The following day (Day 1) media were replaced, and 50,000 or 100,000 CD-NSCs were added. On Day 2, media were replaced and 5-FC added (500 μg/ml). Control dishes included tumor-NSC co-cultures with no 5-FC treatment and tumor cell-only dishes with 5-FC treatment. Three days later, all plates were rinsed well with 1× PBS and fixed with 4% paraformaldehyde for 10 min at room temperature. […] Under high power, the numbers of tumor cells per field were counted. […]

CNS-1 glioblastoma = assay: Intracranial CNS-1 tumor co-transplanted with CD-NSCs, i.p. 5-FC: tumor mass; format: in vivo, adult nude mice; conditions: tumor alone, 5-FC 900 mg/kg i.p. for 10 days
Text: CNS-1 glioblastoma cells alone, or CNS-1 cells co-transplanted with human CS-NSCs were implanted into the frontal lobe of adult nude mice. Two days later, treated animals began to receive daily intraperitoneal injections of 5-FC which continued for ten days. […] Note that there was about an 80% reduction in tumor mass in 5-FC-treated animals transplanted with tumor and CD-NSCs (FIG. 3D). […] FIGS. 3B, 3C and 3D are “camera lucida” sections of tumor areas on representative cryostat tissue sections, stained with X-gal and counterstained with neutral red.
On Day 0, adult nude mice received stereotactically guided injections into the right frontal lobe of CNS-1 glioblastoma alone (7×10^4 in 2 μl PBS), or CNS-1 cells mixed with CD-NSCs (7×10^4 CNS-1 and 3.5×10^4 NSCs in 2 μl PBS). Two days later treated animals received 10 intraperitoneal injections 900 mg/kg of 5-FC over a period of 10 days. Control animals received no 5-FC. Animals were sacrificed on day 13.

Nc1nc(=O)[nH]cc1F [5-FC, 5-fluorocytosine]
killing of tumor cells, tumor alone (CNS-1 glioma cells): not significantly killed
effect on tumor mass in the absence of CD-NSCs (CNS-1 glioblastoma): no effect on tumor mass
